Test results from patent US20110028539A1, “Biologically active taxane analogs and methods of treatment” (Tapestry Pharmaceuticals, Inc., priority 2007, published 2011).
Each block holds one compound with its values, some of them ahead of it.

Columns and labels:
[1] = tested on: bovine microtubule protein (tubulin plus MAP); experiment: In vitro ED50 MT polymerization study (DAPI fluorescence tubulin assay); assay type: biochemical; conditions: for ED50 Compound/ED50 Paclitaxel: ratio of tubulin polymerization ED50 to that of paclitaxel; for EC50: tubulin polymerization, 37° C., 30 minutes, maximum assembly = 25 μM paclitaxel
Description: In this tubulin binding assay, microtubule protein (MTP) is used as a substrate. The assay contains bovine tubulin plus microtubule associated proteins (MAP). MTP is polymerized into microtubules in the presence of DAPI (4′,6′-diamidino-2-phenylindole), a fluorescent compound. DAPI binds to tubulin; when microtubules are formed and there is an enhancement of fluorescence. The microtubule formation is measured as a function of time, using a fluorescence plate reader. […] The method used is based on the procedure published by Donna M. Barron, et al, “Fluorescence-based high-throughput assay for antimicrotuble drugs” Analytical Biochemistry, 315: 49-56, 2003, which is incorporated by reference in its entirety. The excitation wavelength, in that assay, was set at 370 nm and the emission wavelength was set at 450 nm for the DAN experiments.
A Bio-Tek FL 600 microplate Fluorescence used to measure the relative level of fluorescence in the DAPI assay.
Assays were conducted in 96-well plates. Each well contained a total volume of 0.1 mL consisting of PEM buffer (0.1 M Pipes, 1 mM EGTA, 1 mM MgCl2, pH 6.9), 0.2 mg bovine microtubule protein, and 10 μg of DAPI. […] The final DMSO concentration was 4%. The plates were incubated at 37° C. for 30 minutes and read in a fluorescence plate reader using an excitation wavelength of 360 nm and an emission wavelength of 460 nm. Fluorescence values were corrected for the sample without compound.
Experiments were done twice in triplicate. Results were subsequently combined and fit to a non-linear regression program.

[2] = tested on: Ovarian Carcinoma 1A9PTX10; experiment: Inhibition of cell growth, ovarian carcinoma 1A9PTX10 (MDR-, mutant tubulin); assay type: cell-based; conditions: Homo sapiens, 1A9/ptx-10
Source text: (§1) Of note is the top part of the molecule illustrated above, which may be seen to have a 9-keto structure and 10-β hydroxy or 10-β acetoxy stereochemistry. The present application provides novel taxane analogs having a stereochemistry at the C-9 and C-10 OH positions of the molecule.

[3] = tested on: Breast Cancer MCF-7 NCI-AR; experiment: Inhibition of cell growth, breast cancer MCF-7 NCI-AR (MDR+, wild type tubulin); assay type: cell-based; conditions: Homo sapiens
Source text: as §1

head/neck KBV (MDR+) = experiment: MTS proliferation assay, KBV (MDR+); assay type: cell-based; conditions: 48 to 72 hrs
Description: (§2) Day 1: Cells were plated in appropriate growth medium at 5×10^3 per well in 100 ul in 96 well tissue culture plates, Falcon, one for each drug to be tested. Col 1 was blank; it contained no cells, just medium. The plates were incubated overnight at 37° C., 5% CO2 to allow attachment,
(§3) Day 2: Added 120 ul growth medium in wells of 96-well “dilution plates” (one for each drug) and let sit in 37° C. incubator for about 1 hr.
(§4) Thawed DMSO drug stocks (usually at 10 mM). Each drug was diluted 6 ul into a tube with 3 ml growth medium, to 20 uM.
(§5) Aspirated medium from col 12 of a dilution plate; added 200-300 ul of 20 uM drug to wells of col 12. Made serial dilution down this 96-well plate: for a […] dilution pattern, moved 60 ul from col 12 to col 11, mixed 4-5 times (using 8 place multi-pipettor), moved 60 ul to col 10, etc. stopping at col 3.
(§6) Moved 100 ul of medium+drug from dilution plate to a cell plate, i.e. col 1 from drug plate (blank=no cells) to col 1 of cell plate, etc. up to col 12. Col 2 contained cells with no drug. Col 3 had the lowest concentration of drug (0.005 nM) and col 12 had the highest drug concentration (10 uM).
(§7) Day 4 or 5: Terminated the assay 48 to 72 hrs after drug addition. […] When the color turned dark in control wells (col 2), and was still light in col 12, the absorbance at 490 nm was read on a plate reader; the results were used to calculate IC50.

uterine MESSA/Dox (MDR+) = experiment: MTS proliferation assay, MESSA/Dox (MDR+); assay type: cell-based; conditions: Homo sapiens, MES-SA, 48 to 72 hrs
Description: as §2, §3, §4, §5, §6, §7

colon HT29 = experiment: MTS proliferation assay, HT29; assay type: cell-based; conditions: Homo sapiens, HT-29, 48 to 72 hrs
Description: as §2, §3, §4, §5, §6, §7

[4] = Biological evaluation of separated isomers of Formula 48 (activity comparison); conditions: separated diastereoisomer vs mixture
prostate DU145 = experiment: MTS proliferation assay, DU145; assay type: cell-based; conditions: Homo sapiens, DU-145, 48 to 72 hrs
Description: as §2, §3, §4, §5, §6, §7

Neuroblastoma SKNAS = experiment: MTS proliferation assay, SKNAS; assay type: cell-based; conditions: Homo sapiens, SK-N-AS, 48 to 72 hrs
Description: as §2, §3, §4, §5, §6, §7

prostate PC-3 = experiment: MTS proliferation assay, PC-3; assay type: cell-based; conditions: prostate PC-3, MTS, 48 to 72 hrs
Description: as §2, §3, §4, §5, §6, §7

head/neck KB = experiment: MTS proliferation assay, KB; assay type: cell-based; conditions: 48 to 72 hrs
Description: as §2, §3, §4, §5, §6, §7

uterine MESSA = experiment: MTS proliferation assay, MESSA; assay type: cell-based; conditions: Homo sapiens, MES-SA, 48 to 72 hrs
Description: as §2, §3, §4, §5, §6, §7

head/neck FADU = experiment: MTS proliferation assay, FADU; assay type: cell-based; conditions: Homo sapiens, 48 to 72 hrs
Description: as §2, §3, §4, §5, §6, §7

breast MDA435s = experiment: MTS proliferation assay, MDA435s; assay type: cell-based; conditions: 48 to 72 hrs
Description: as §2, §3, §4, §5, §6, §7

Neuroblastoma SK-N-AS = experiment: Inhibition of cell growth, neuroblastoma SK-N-AS; assay type: cell-based; conditions: Homo sapiens, concentration 0.1 ug/mL
Source text: as §1

[5] = tested on: Squamous Cell Carcinoma FADU; experiment: Inhibition of cell growth, squamous cell carcinoma FADU; assay type: cell-based; conditions: Homo sapiens, concentration 0.05 ug/mL
Source text: as §1

- EC50 [1]: 3180 ± 450 nM
Compound: CC(=O)O[C@@]12CO[C@@H]1C[C@H](O)[C@@]1(C)C(=O)[C@H](O)C3=C(C)[C@@H](OC(=O)[C@H](O)[C@@H](NC(=O)OC(C)(C)C)c4ccccc4)C[C@@](O)([C@@H](OC(=O)c4ccccc4)[C@H]21)C3(C)C [Docetaxel]
- ED50 Compound/ED50 Paclitaxel [1]: 1.07

Compound: C/C(=C\c1csc(C)n1)[C@@H]1C[C@@H]2O[C@]2(C)CCC[C@H](C)[C@H](O)[C@@H](C)C(=O)C(C)(C)[C@@H](O)CC(=O)O1 [Epothilone B]
- ED50 Compound/ED50 Paclitaxel [1]: 1.11
- EC50 [1]: 3310 ± 510 nM

Compound: C=CC1O[C@H]2C[C@H]3OC[C@@]3(OC(C)=O)[C@H]3[C@H](OC(=O)c4ccccc4)[C@]4(O)C[C@H](OC(=O)[C@H](O)[C@@H](NC(=O)c5ccccc5)c5ccccc5)C(C)=C([C@H](OC(C)=O)[C@H](O1)[C@]23C)C4(C)C (some centres unmarked) [Formula 45]
- inhibition at 0.25 µg/mL ([2]; 1A9PTX10, concentration 0.25 ug/mL): 93%
- inhibition at 0.5 µg/mL ([2]; 1A9PTX10, concentration 0.5 ug/mL): 96%
- inhibition at 0.5 µg/mL ([3]; MCF7, concentration 0.5 ug/mL): 45%
- inhibition at 1 µg/mL ([3]; MCF7, concentration 1.0 ug/mL): 65%
- inhibition at 2 µg/mL ([3]; MCF7, concentration 2.0 ug/mL): 94%

- IC50 (colon HT29): 0.006 nM
- IC50 (prostate DU145): 60 nM
- IC50 (Neuroblastoma SKNAS): 11 nM
- IC50 (prostate PC-3): 0.03 nM
- IC50 (head/neck KB): 9.4 nM
- EC50 [1]: 1580 ± 460 nM
Compound: C=C[C@H]1O[C@H]2C[C@H]3OC[C@@]3(OC(C)=O)[C@H]3[C@H](OC(=O)c4ccccc4)[C@]4(O)C[C@H](OC(=O)[C@H](O)[C@H](CC(C)C)NC(=O)OC(C)(C)C)C(C)=C([C@H](OC(C)=O)[C@H](O1)[C@]23C)C4(C)C [Formula S-31]
- IC50 (head/neck KBV (MDR+)): 553 nM
- IC50 (uterine MESSA/Dox (MDR+)): 44.8 nM
- activity compared with the isomeric mixture (Formula 48) [4]: significantly more active than the isomeric mixture
- IC50 (uterine MESSA): 2.9 nM
- IC50 (head/neck FADU): 21 nM
- ED50 Compound/ED50 Paclitaxel [1]: 0.53
- IC50 (breast MDA435s): 10 nM

Compound: CC(=O)O[C@H]1C(=O)[C@@]2(C)[C@H]([C@H](OC(=O)c3ccccc3)[C@]3(O)C[C@H](OC(=O)[C@H](O)[C@@H](NC(=O)c4ccccc4)c4ccccc4)C(C)=C1C3(C)C)[C@]1(OC(C)=O)CO[C@@H]1C[C@@H]2O [Paclitaxel, reference compound]
- inhibition at 5 µg/mL ([2]; 1A9PTX10, concentration 5 ug/mL): 55%
- inhibition at 0.1 µg/mL (Neuroblastoma SK-N-AS): 54%
- inhibition at 40 µg/mL ([3]; MCF7, concentration 40 ug/mL): 55%
- inhibition at 0.05 µg/mL [5]: 47%
